# Measured values published in patent US20080318788A1, “Microcapsule” (priority 2005, published 2008).
# Assay: Water solubility of UV protection dyes
# Settings: not given
row,Compound,WATER SOLUBILITY [mg/mL]
1,CC1=NN(c2ccc(S(=O)(=O)[O-])cc2)C(=O)C1N=Nc1ccc(-c2ccc(N=Nc3ccc(OS(=O)(=O)c4ccc(C)cc4)cc3)c(S(=O)(=O)[O-])c2)cc1.[Na+].[Na+] (stereo not shown) [Acid Orange 63],50
2,Cc1nn(-c2ccccc2)c([O-])c1N=Nc1cc([N+](=O)[O-])cc(S(=O)(=O)[O-])c1[O-].[Cr+3].[Na+].[OH-] [Acid Orange 74],20
3,Cc1cc(N=Nc2ccc(C)c(N=Nc3cc(C)c(N)cc3N)c2)c(N)cc1N [Bismark Brown R],70
4,O=S1(=O)OC(c2ccc(O)c(Cl)c2)(c2ccc(O)c(Cl)c2)c2ccccc21 [Chlorophenol Red],60
5,Cc1cc(O)ccc1C1(c2ccc(O)cc2C)OS(=O)(=O)c2ccccc21 [m-Cresol Purple],2
6,Acid Orange 51,30

# Now from value to compound:
row,WATER SOLUBILITY [mg/mL],Compound
1,50,Nc1ccc(N=Nc2cccc(N=Nc3ccc(N)cc3N)c2)c(N)c1 [Bismark Brown Y]
2,40,O=S(=O)([O-])c1ccc2c(N=Nc3ccccc3)c(O)ccc2c1.[Na+] [Crocein Orange G]
3,1,CC(=O)Nc1ccc2nc3c4ccccc4c(=N)cc-3oc2c1.Cl [Darrow Red]
4,100,CCN(CC)c1ccc(N=Nc2ccc(S(=O)(=O)[O-])cc2)cc1.[K+] [Ethyl Orange]
5,3,CCN(CC)c1ccc(N=Nc2ccccc2C(=O)O)cc1 [Ethyl Red]
6,60,Nc1cc(N)c(N=Nc2cccc3c(S(=O)(=O)O)cccc23)cc1N=Nc1cc([N+](=O)[O-])ccc1O.[Na] [Mordant Brown 1]
7,60,Cc1cc(N=Nc2cc([N+](=O)[O-])cc([N+](=O)[O-])c2O)c(N)cc1N [Mordant Brown 4]
8,20,Nc1cc(N)c(S(=O)(=O)[O-])cc1N=Nc1cc([N+](=O)[O-])ccc1O.[Na+] [Mordant Brown 33]
9,40,Nc1cc(N)c(N=Nc2cc([N+](=O)[O-])cc([N+](=O)[O-])c2O)cc1Cl [Mordant Brown 48]

# Assay: Photo stabilisation study of COMPOUND (V) in gelatine microcapsules exposed to daylight, HPLC assay
# Format: physicochemical
# Settings: Chocolate Brown dyed gelatine capsules, 88 hours exposure to daylight (8 hours daylight over 11 days)
# Description: The HPLC system was from Waters comprising of two 510 pumps, a 717 plus Autosampler, a System Interface Module, a Lambda-Max 480 detector and Millennium Chromatography Manager software. Chromatography was achieved on a Zorbax ODS 5 μm C18 analytical column of dimension 4.6×250 mm internal diameter maintained at 35° C. Mobile phases were unmodified water (Milli-Q grade) in reservoir A and unmodified acetonitrile in reservoir B. Linear gradient elution was used with 70 to 90% B over the first 10 minutes, then 100% B for 3 minutes and returning to 70% B over 4 minutes. Injection cycle time was 20 minutes with a flow rate of 2 ml/min. The samples were either dissolved in acetonitrile or diethyl ether and 10 μl volume injected on to the column which was maintained at 35° C. Prior to use, mobile phase were degassed under vacuum with sonication and continuously sparged with helium. The naphthoquinones were detected by measurement of UV absorbance at 269 nm.
# A batch of gelatine microcapsules containing 300 mg of COMPOUND (V) in 15 ml of Exxsol® D100 was produced.
# The capsule slurry was washed repeatedly with water to remove debris and filtered to obtain a wet cake. An aliquot of the wet cake (11.3 g) was made up to 50 ml and dyed brown with Chocolate Brown (500 mg, equivalent to 10 mg/ml solution). Aliquots (200 μl) of microcapsule slurry of brown and undyed capsules were applied to glass microscope slides in duplicate. The slurry from each batch was spread to form a monolayer of microcapsules on each slide. The slides were air dried in a dark at room temperature (≅21° C.) and exposed to daylight on a south-facing windowsill for various time periods. Two slides from each batch were analysed per time point post of exposure. Unexposed slides stored in the dark were used as time zero reference.
# The contents of the capsules were extracted by rupturing the capsules, by rolling a glass rod on the slides, and washing both the rod and the slide with diethyl ether. The extracts were made up to 10 ml and assayed by HPLC.
row,Compound,"amount of COMPOUND (V) remaining, % of the initial amount [%]"
1,CC(=O)OC1=C(C(C)CCC[Si](C)(C)C)C(=O)c2ccccc2C1=O (stereo not shown) [COMPOUND (V)],~80

# Same assay, conditions: undyed impervious gelatine capsules, 6 hours exposure to daylight
row,Compound,"amount of COMPOUND (V) remaining, % of the initial amount [%]"
1,CC(=O)OC1=C(C(C)CCC[Si](C)(C)C)C(=O)c2ccccc2C1=O (stereo not shown) [COMPOUND (V)],60

# Same assay, conditions: undyed impervious gelatine capsules, 16 hours exposure to daylight
row,Compound,"amount of COMPOUND (V) remaining, % of the initial amount [%]"
1,CC(=O)OC1=C(C(C)CCC[Si](C)(C)C)C(=O)c2ccccc2C1=O (stereo not shown) [COMPOUND (V)],23

# Same assay, conditions: undyed impervious gelatine capsules, 40 hours exposure to daylight (8 hours daylight over 5 days)
row,Compound,"amount of COMPOUND (V) remaining, % of the initial amount [%]"
1,CC(=O)OC1=C(C(C)CCC[Si](C)(C)C)C(=O)c2ccccc2C1=O (stereo not shown) [COMPOUND (V)],6
